This passage reports TGI and GI50 results from PubChem BioAssay (NCI).

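Interpolation was linear, between the two tested concentrations surrounding the appropriate level; five concentrations were tested over 48 hours in 96-well plates. Abbreviation: GI50, concentration required for 50% inhibition of growth. The concentration for full growth arrest is given as TGI.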

A word on the TGI: it is the concentration at which net growth stops. As a reminder, the GI50 is the concentration at which growth is held to half of that of the control.

One test concerns K-562 leukemia. Briefly: DTP human tumour cell line panel, 48 h.
Molecule `CCC1(C(=O)OC(C)(C)C)OC12C(C)CCCC2C` (stereo not drawn) showed a TGI of 52.8 µM.

As to `Cc1ccc(-c2cc(N)n(-c3nc4c(c(=O)n(C)c(=O)n4C)n3C)n2)cc1`, the TGI is greater than 100 µM.

Take `CN(C)c1ccc(C2SCC(=O)N2NS(=O)(=O)c2cccc(C(=O)O)c2)cc1` (stereo not drawn): the TGI is greater than 100 µM.

Turning to `COC(=O)[C@H](Cc1ccccc1)NC(=O)[C@H](Cc1ccccc1)NC(=O)[C@@H]1CCCN1C(=O)N[C@H]1C2C=CC(C2)C1C(=O)N1CCC[C@H]1C(=O)N[C@@H](C)C(=O)N[C@H](C(=O)OC)C(C)C` (stereo partly drawn), the TGI is greater than 100 µM.

Molecule `O=C1c2ccccc2-c2nc(-c3cccc([N+](=O)[O-])c3)nnc21` gave a TGI greater than 100 µM.

`CNC(=O)Oc1ccc(-c2cn3cc(OC(=O)NC)ccc3n2)cc1` displayed a TGI greater than 100 µM.

Take `CC(=O)N1N=C(c2ccc3ccccc3c2O)CC1C(=O)c1ccco1` (stereo not drawn): the TGI was found to be 41 µM.

Molecule `N#Cc1nc(-c2cccs2)oc1N` came in with a TGI greater than 100 µM.

Regarding `O=c1c2c([N+](=O)[O-])cccc2nc2[nH]c3ccccc3n12`, the TGI was greater than 75 µM.

On to `O=C(NCCCCCCNCc1cccc2ccccc12)Nc1cccc2ccccc12`, for which the TGI is greater than 100 µM.

Molecule `OCC1OC(n2cnc3c(Cl)nc(Nc4ccccc4)nc32)CC1O` (stereo not drawn) displayed a TGI greater than 100 µM.

With `C[C@]12CCc3nc(Nc4ccccc4)sc3C1=CC[C@@H]1[C@@H]2CC[C@]2(C)/C(=N/NC(N)=S)CC[C@@H]12`, the GI50 was 1.97 µM and the TGI was greater than 100 µM.

For `NCCSc1nc2ccccc2c(=O)n1-c1ccccc1`, the TGI is greater than 100 µM.

In turn, `Nc1cccc(Nc2nc3ccccc3nc2NS(=O)(=O)c2ccccc2)c1` showed a TGI of 76.3 µM.

With `O=c1[nH]nc(Cc2ccc([N+](=O)[O-])cc2)n1CCO`, the TGI is greater than 100 µM.

Regarding `N#Cc1c(-c2ccccc2)nc(-c2ccccc2)sc1=S`, the TGI is greater than 100 µM.

The molecule `CCn1nc2c3c(ncn3C(C)(C)O2)c1=O` showed a TGI greater than 100 µM.

Molecule `O=C(O)CC[N+]1=CCC(c2ccccc2)(c2ccccc2)O1` registered a TGI greater than 100 µM.

`O=C1CCCCC(=O)OC2(CCCCC2=O)CC1` (stereo not drawn) showed a TGI greater than 100 µM.

For `CCC(C#N)NC(=O)NC(C#N)CC` (stereo not drawn), the TGI was greater than 100 µM.

Take `CCOC(=O)/C=C(/C(=O)OCC)n1ccc(N)nc1=O`: the TGI was greater than 100 µM.

For the molecule `C1CNCCNCCN1`, the TGI was greater than 100 µM.

In the case of `CC1Cn2c(nc3ccccc32)NC1=O` (stereo not drawn), the TGI is greater than 100 µM.

The subject of a further test is LOX IMVI melanoma. Briefly: DTP human tumour cell line panel, 48 h.
`CCC1(C(=O)OC(C)(C)C)OC12C(C)CCCC2C` (stereo not drawn) yielded a TGI of 96.1 µM.

On to `CN(C)c1ccc(C2SCC(=O)N2NS(=O)(=O)c2cccc(C(=O)O)c2)cc1` (stereo not drawn), for which the TGI was greater than 100 µM.

`COC(=O)[C@H](Cc1ccccc1)NC(=O)[C@H](Cc1ccccc1)NC(=O)[C@@H]1CCCN1C(=O)N[C@H]1C2C=CC(C2)C1C(=O)N1CCC[C@H]1C(=O)N[C@@H](C)C(=O)N[C@H](C(=O)OC)C(C)C` (stereo partly drawn) returned a TGI greater than 100 µM.

The molecule `CNC(=O)Oc1ccc(-c2cn3cc(OC(=O)NC)ccc3n2)cc1` gave a TGI greater than 100 µM.

`N#Cc1nc(-c2cccs2)oc1N` displayed a TGI greater than 100 µM.

Molecule `O=c1c2c([N+](=O)[O-])cccc2nc2[nH]c3ccccc3n12` registered a TGI greater than 75 µM.

For the molecule `O=C(NCCCCCCNCc1cccc2ccccc12)Nc1cccc2ccccc12`, the TGI is greater than 100 µM.

Consider `OCC1OC(n2cnc3c(Cl)nc(Nc4ccccc4)nc32)CC1O` (stereo not drawn), for which the TGI is 36.5 µM.

Turning to `CC1(CF)SCc2nc3ccccc3n21` (stereo not drawn), the TGI is greater than 100 µM.

The molecule `NCCSc1nc2ccccc2c(=O)n1-c1ccccc1` yielded a TGI greater than 100 µM.

`Nc1cccc(Nc2nc3ccccc3nc2NS(=O)(=O)c2ccccc2)c1` came in with a TGI of 47.3 µM.

In the case of `O=c1[nH]nc(Cc2ccc([N+](=O)[O-])cc2)n1CCO`, the TGI is greater than 100 µM.

Molecule `N#Cc1c(-c2ccccc2)nc(-c2ccccc2)sc1=S` yielded a TGI greater than 100 µM.

`CCn1nc2c3c(ncn3C(C)(C)O2)c1=O` gave a TGI greater than 100 µM.

The molecule `CCC(C#N)NC(=O)NC(C#N)CC` (stereo not drawn) gave a TGI greater than 100 µM.

Molecule `CCOC(=O)/C=C(/C(=O)OCC)n1ccc(N)nc1=O` showed a TGI greater than 100 µM.

In turn, `CCCSc1ccc2[nH]c(/N=C/c3ccco3)cc2c1` displayed a TGI greater than 100 µM.

The molecule `Cc1cn(C2CC(n3cc(Cn4cc(Br)c(=O)[nH]c4=O)nn3)C(CO)O2)c(=O)[nH]c1=O` (stereo not drawn) registered a TGI greater than 100 µM.

Molecule `C1CNCCNCCN1` displayed a TGI greater than 100 µM.

Regarding `CC1Cn2c(nc3ccccc32)NC1=O` (stereo not drawn), the total growth inhibition concentration (TGI) is greater than 100 µM.

Molecule `O=c1nc2c(c(-c3ccccc3Cl)[nH]1)COC/C2=C\c1ccccc1Cl` showed a TGI greater than 100 µM.

Another test relates to MDA-MB-435. Briefly: DTP human tumour cell line panel, 48 h.
In the case of `CCC1(C(=O)OC(C)(C)C)OC12C(C)CCCC2C` (stereo not drawn), the TGI is greater than 100 µM.

`Cc1ccc(-c2cc(N)n(-c3nc4c(c(=O)n(C)c(=O)n4C)n3C)n2)cc1` showed a TGI greater than 100 µM.

The molecule `CN(C)c1ccc(C2SCC(=O)N2NS(=O)(=O)c2cccc(C(=O)O)c2)cc1` (stereo not drawn) had a TGI greater than 100 µM.

The molecule `COC(=O)[C@H](Cc1ccccc1)NC(=O)[C@H](Cc1ccccc1)NC(=O)[C@@H]1CCCN1C(=O)N[C@H]1C2C=CC(C2)C1C(=O)N1CCC[C@H]1C(=O)N[C@@H](C)C(=O)N[C@H](C(=O)OC)C(C)C` (stereo partly drawn) had a TGI greater than 100 µM.

As for `O=C1c2ccccc2-c2nc(-c3cccc([N+](=O)[O-])c3)nnc21`, the TGI was 4.05 µM.

`CNC(=O)Oc1ccc(-c2cn3cc(OC(=O)NC)ccc3n2)cc1`: the TGI is greater than 100 µM.

For the molecule `CC(=O)N1N=C(c2ccc3ccccc3c2O)CC1C(=O)c1ccco1` (stereo not drawn), the TGI was greater than 100 µM.

With `N#Cc1nc(-c2cccs2)oc1N`, the TGI was greater than 100 µM.

Turning to `O=c1c2c([N+](=O)[O-])cccc2nc2[nH]c3ccccc3n12`, the TGI was greater than 75 µM.

For `O=C(NCCCCCCNCc1cccc2ccccc12)Nc1cccc2ccccc12`, the TGI is greater than 100 µM.

Turning to `OCC1OC(n2cnc3c(Cl)nc(Nc4ccccc4)nc32)CC1O` (stereo not drawn), the TGI is greater than 100 µM.

Regarding `CC1(CF)SCc2nc3ccccc3n21` (stereo not drawn), the TGI is greater than 100 µM.

Turning to `C[C@]12CCc3nc(Nc4ccccc4)sc3C1=CC[C@@H]1[C@@H]2CC[C@]2(C)/C(=N/NC(N)=S)CC[C@@H]12`, the GI50 is 3.05 µM and the TGI is greater than 100 µM.

Regarding `NCCSc1nc2ccccc2c(=O)n1-c1ccccc1`, the TGI was greater than 100 µM.

`Nc1cccc(Nc2nc3ccccc3nc2NS(=O)(=O)c2ccccc2)c1` gave a TGI of 62.4 µM.

On to `O=c1[nH]nc(Cc2ccc([N+](=O)[O-])cc2)n1CCO`, for which the TGI is greater than 100 µM.

Molecule `N#Cc1c(-c2ccccc2)nc(-c2ccccc2)sc1=S` came in with a TGI greater than 100 µM.

The molecule `CCn1nc2c3c(ncn3C(C)(C)O2)c1=O` had a TGI greater than 100 µM.

Molecule `O=C(O)CC[N+]1=CCC(c2ccccc2)(c2ccccc2)O1` displayed a TGI greater than 100 µM.

On to `O=C1CCCCC(=O)OC2(CCCCC2=O)CC1` (stereo not drawn), for which the TGI is greater than 100 µM.

In turn, `CCC(C#N)NC(=O)NC(C#N)CC` (stereo not drawn) yielded a TGI greater than 100 µM.

For the molecule `CCOC(=O)/C=C(/C(=O)OCC)n1ccc(N)nc1=O`, the TGI was greater than 100 µM.
